In PMC3492795 (International Journal of Biological Sciences, 2012):

Target: T1, LXRβ (Homo sapiens, UniProt P55055)
T1 sequence (P55055 222-460 limits assumed): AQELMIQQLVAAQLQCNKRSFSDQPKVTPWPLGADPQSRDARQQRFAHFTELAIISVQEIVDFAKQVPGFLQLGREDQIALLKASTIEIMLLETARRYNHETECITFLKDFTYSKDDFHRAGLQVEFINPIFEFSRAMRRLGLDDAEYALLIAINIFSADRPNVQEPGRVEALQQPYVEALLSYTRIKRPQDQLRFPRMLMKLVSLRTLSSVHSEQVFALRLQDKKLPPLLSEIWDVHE
Assay: SPR
Assay type: binding

## O=C(O)c1cc(O)c2c(c1)C(=O)c1cccc(O)c1C2=O [RH, 4,5-dihydroxyanthraquinone-2-carboxylic acid]
  Kd: 32 µM
